What was measured:
[1] = molecular target: T1, CrT (Homo sapiens, UniProt P48029); assay: 14C-Cr transport in HL-1 cells expressing the human CrT protein (dose-response, time course, kinetics); format: cell-based; conditions: HL-1 cells expressing human CrT, Michaelis-Menten, no DOX
T1 construct: swapped with the corresponding fragment from the human full-length open reading frame; expressed in transfected cells; host or cells: HL-1 murine atrial cardiomyocyte line, transient transfection with pcDNA3.1(-) human CrT cDNA
T1 sequence (P48029 1-635): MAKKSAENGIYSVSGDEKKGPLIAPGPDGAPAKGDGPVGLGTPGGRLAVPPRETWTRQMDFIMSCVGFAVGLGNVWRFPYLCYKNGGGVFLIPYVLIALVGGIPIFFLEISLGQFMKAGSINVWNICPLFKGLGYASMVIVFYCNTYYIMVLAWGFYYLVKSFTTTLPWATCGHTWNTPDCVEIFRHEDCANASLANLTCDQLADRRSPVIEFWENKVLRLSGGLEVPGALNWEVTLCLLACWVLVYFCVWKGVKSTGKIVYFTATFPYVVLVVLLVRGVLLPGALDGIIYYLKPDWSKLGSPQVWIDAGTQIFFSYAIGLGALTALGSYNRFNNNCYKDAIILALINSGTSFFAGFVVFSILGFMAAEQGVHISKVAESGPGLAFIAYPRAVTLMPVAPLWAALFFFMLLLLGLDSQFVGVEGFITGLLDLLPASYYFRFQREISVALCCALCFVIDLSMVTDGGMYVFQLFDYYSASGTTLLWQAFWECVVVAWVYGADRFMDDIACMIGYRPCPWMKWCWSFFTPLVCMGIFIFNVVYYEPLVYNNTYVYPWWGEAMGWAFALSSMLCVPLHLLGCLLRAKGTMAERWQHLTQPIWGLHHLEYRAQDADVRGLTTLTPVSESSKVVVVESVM
Method: The cultures were maintained in a humidified atmosphere of 5% CO2 at 37° C.
(§1) Cells used for Cr transport assays were cultured in 24-well plates coated with fibronectin and gelatin. The wells were washed twice with room temperature choline buffer (150 mmol/L choline chloride; 1 mmol/L CaCl2; 5 mmol/L MgCl2; 2 mmol/L KCl; and 5 mmol/L HEPES-Tris, pH 7.5).
(§2) The cells were lysed with 500 mmol/L NaOH and heated to 80° C. for 30 min. 100 μl of cell lysate was subjected to scintillation counting using a BECKMAN COULTER LS 6500 scintillation counter. Cr transport was normalized to the protein concentration measured using the bicinchoninic acid (BCA) protein assay (PIERCE BIOTECHNOLOGY, Rockford, Ill.).

[2] = molecular target: T2, Cr transport (Homo sapiens, UniProt P48029); conditions: Dai W. et al., 1999; read-out: IC50 for inhibition of Cr transport; cited from earlier work
T2 sequence (P48029 1-635): T1 sequence (P48029 1-635)

[3] = molecular target: T1, CrT; assay: DOX competition assay: 14C-Cr uptake in the presence of DOX and/or B-GPA; format: cell-based; conditions: acute exposure during uptake; 2 μmol/L DOX, 100 μmol/L B-GPA; control = 1.00
Method: as §1, §2

[4] = substrate: CN(CC(=O)O)C(=N)N; assay: 14C-Cr transport in HL-1 cells expressing the human CrT protein (dose-response, time course, kinetics); format: cell-based; conditions: other: HL-1 cells expressing human CrT, Michaelis-Menten, no DOX; pH 7.5
Method: Cells were plated on tissue culture dishes pre-coated with gelatin/fibronectin and allowed to grow in M199 media (INVITROGEN, Carlsbad, Calif.) containing 2% serum before experimentation. […] The cultures were maintained in a humidified atmosphere of 5% CO2 at 37° C.
Cultures intended for Cr transport measurements were grown in 24-well culture plates, whereas those used to characterize the CrT protein were cultured in 6-well dishes.
Cr transport assays were performed after growth in control media for 0, 4, 12, 24 or 48 hrs.
For experiments with RNCM, each condition was tested in quadruplicate. Measurements were performed in triplicate for experiments performed using HL-1 cells.

CN(CC(=O)O)C(=N)N [Cr, Creatine]
Cr transport Vmax [1]: 42.9±5.24 nmol/mg protein

NC(N)=NCCC(=O)O [β-GPA]
IC50 [2]: 50 µM
Relative Vmax ± SEM [3]: 0.43 ± 0.11

B1: human CrT (Homo sapiens) (protein)
chain: T1 sequence (P48029 1-635)
notes: swapped with the corresponding fragment from the human full-length open reading frame; expressed in transfected cells; host or cells: HL-1 murine atrial cardiomyocyte line, transient transfection with pcDNA3.1(-) human CrT cDNA
Km [4]: 63.5 ± 2.37 µM

Source: patent US20120315654A1, “COMPOSITIONS AND METHODS FOR DETECTING CARDIOTOXICITY” (DUKE UNIVERSITY, priority 2011, published 2012)
